# Where a name gives a salt, the structure may show the parent alone.
row,Structure (SMILES),melting point
1,CN1CCC(c2ccccc2)c2ccc(F)cc2C1.O=C(O)/C=C\C(=O)O (centres unmarked),153 to 155 °C
2,COc1ccc2c(c1)CN(C)CCC2c1cc(F)c(C#N)c(F)c1 (centres unmarked) (as salt: citrate),82 to 86 °C
3,CN1CCC(c2ccccc2)c2ccc(C#N)cc2C1 (centres unmarked) (as salt: maleate),67 to 69 °C
4,"COc1ccc2c(c1)CN(C)CCC2c1ccccc1 (racemic) (as salt: fumarate) [Example 1, (+/−)-8-methoxy-2-methyl-5-phenyl-2,3,4,5-tetrahydro-1H-benzo[c]azepine]",171 to 173 °C
5,"COc1cccc2c1C(c1ccccc1)CCN(C)C2 (racemic) (as salt: fumarate) [Example 2, (+/−)-6-methoxy-2-methyl-5-phenyl-2,3,4,5-tetrahydro-1H-benzo[c]azepine]",154 to 156 °C
6,"COc1ccc2c(c1)CN(C)CCC2c1ccc(F)cc1 (racemic) (as salt: hydrochloride) [Example 3, (+/−)-5-(4-fluorophenyl)-8-methoxy-2-methyl-2,3,4,5-tetrahydro-1H-benzo[c]azepine]",149 to 150 °C
7,"COc1ccc(C2CCN(C)Cc3cc(OC)ccc32)cc1 (racemic) (as salt: hydrochloride) [Example 5, (+/−)-5-(4-methoxyphenyl)-8-methoxy-2-methyl-2,3,4,5-tetrahydro-1H-benzo[c]azepine]",165 to 166 °C
8,"COc1ccc2c(c1)CN(C)CCC2c1ccc(Cl)cc1 (racemic) (as salt: hydrochloride) [Example 7, (+/−)-5-(4-chlorophenyl)-8-methoxy-2-methyl-2,3,4,5-tetrahydro-1H-benzo[c]azepine]",152 to 153 °C
9,"COc1ccc2c(c1)CN(C)CCC2c1ccc(F)c(F)c1 (racemic) (as salt: hydrochloride) [Example 9, (+/−)-5-(3,4-difluorophenyl)-8-methoxy-2-methyl-2,3,4,5-tetrahydro-1H-benzo[c]azepine]",139 to 141 °C
10,"COc1ccc2c(c1)CN(C)CCC2c1ccccc1Cl (racemic) (as salt: hydrochloride) [Example 10, (+/−)-5-(2-chlorophenyl)-8-methoxy-2-methyl-2,3,4,5-tetrahydro-1H-benzo[c]azepine]",129 to 132 °C
11,"COc1ccc2c(c1)CN(C)CCC2c1ccc(F)c(Cl)c1 (racemic) (as salt: hydrochloride) [Example 11, (+/−)-5-(3-chloro-4-fluorophenyl)-8-methoxy-2-methyl-2,3,4,5-tetrahydro-1H-benzo[c]azepine]",167 to 169 °C
12,"Cc1ccc2c(c1)CN(C)CCC2c1ccc(F)cc1 (single isomer, unassigned; (+)) (as salt: hydrochloride) [Example 16, (+)-5-(4-fluorophenyl)-2,8-dimethyl-2,3,4,5-tetrahydro-1H-benzo[c]azepine]",243 to 244 °C
13,"Cc1ccc(-c2ccc3c(c2)CN(C)CCC3c2ccccc2)nn1 (single isomer, unassigned; (+)) (as salt: hydrochloride) [Example 24, (+)-2-methyl-8-(6-methyl-pyridazin-3-yl)-5-phenyl-2,3,4,5-tetrahydro-1H-benzo[c]azepine]",168 to 170 °C
14,"CN1CCC(c2ccccc2)c2ccc(-c3cccnn3)cc2C1 (single isomer, unassigned; (+)) (as salt: hydrochloride) [Example 25, (+)-2-methyl-5-phenyl-8-(pyridazin-3-yl)-2,3,4,5-tetrahydro-1H-benzo[c]azepine]",154 to 156 °C
15,"CN1CCC(c2ccccc2)c2ccc(-c3ccc(N(C)C)nn3)cc2C1 (single isomer, unassigned; (+)) (as salt: maleate) [Example 26, (+)-dimethyl-[6-(2-methyl-5-phenyl-2,3,4,5-tetrahydro-1H-benzo[c]azepine-8-yl)-pyridazin-3-yl]-amine]",99 to 102 °C
16,"CN1CCC(c2ccccc2)c2ccc(-c3ncccn3)cc2C1 (single isomer, unassigned; (+)) (as salt: maleate) [Example 27, (+)-2-methyl-5-phenyl-8-(pyrimidin-2-yl)-2,3,4,5-tetrahydro-1H-benzo[c]azepine]",76 to 78 °C
17,"CN1CCC(c2ccccc2)c2ccc(-c3cncnc3)cc2C1 (single isomer, unassigned; (+)) (as salt: maleate) [Example 28, (+)-2-methyl-5-phenyl-8-(pyrimidin-5-yl)-2,3,4,5-tetrahydro-1H-benzo[c]azepine]",93 to 96 °C
18,"CN1CCC(c2ccccc2)c2ccc(-c3cnccn3)cc2C1 (single isomer, unassigned; (+)) (as salt: maleate) [Example 29, (+)-2-methyl-5-phenyl-8-(pyrazin-2-yl)-2,3,4,5-tetrahydro-1H-benzo[c]azepine]",67 to 69 °C
19,"CN1CCC(c2ccccc2)c2ccc(-c3ccncc3)cc2C1 (single isomer, unassigned; (+)) (as salt: maleate) [Example 31, (+)-2-methyl-5-phenyl-8-(pyridin-4-yl)-2,3,4,5-tetrahydro-1H-benzo[c]azepine]",91 to 93 °C
20,"CN1CCC(c2ccccc2)c2ccc(-c3cccc(N)n3)cc2C1 (single isomer, unassigned; (+)) (as salt: maleate) [Example 32, (+)-6-(2-methyl-5-phenyl-2,3,4,5-tetrahydro-1H-benzo[c]azepin-8-yl)pyridine-2-amine]",112 to 114 °C
21,"CN1CCC(c2ccccc2)c2ccc(N3CCOCC3)cc2C1 (single isomer, unassigned; (+)) (as salt: maleate) [Example 34, (+)-4-(2-methyl-5-phenyl-2,3,4,5-tetrahydro-1H-benzo[c]azepin-8-yl)morpholine]",88 to 89 °C

# Further lines, results first:
row,melting point,Structure (SMILES)
1,88 to 90 °C,"COc1ccc2c(c1)CN(C)CCC2c1cc(F)c(O)c(F)c1 (centres unmarked) (as salt: citrate) [Example 62, 2,6-difluoro-4-(8-methoxy-2-methyl-2,3,4,5-tetrahydro-1H-benzo[c]azepin-5-yl)phenol]"
2,50 to 54 °C,"COc1ccc2c(c1)CN(C)CCC2c1ccc(O)c(F)c1 (centres unmarked) (as salt: maleate) [Example 63, 2-fluoro-4-(8-methoxy-2-methyl-2,3,4,5-tetrahydro-1H-benzo[c]azepin-5-yl)phenol]"
3,154 to 156 °C,"COc1ccc2c(c1)CNCCC2c1ccccc1 (racemic) (as salt: maleate) [Example 53, (+/−)-8-methoxy-5-phenyl-2,3,4,5-tetrahydro-1H-benzo[c]azepine]"
4,172 to 175 °C,"COc1ccc2c(c1)CN(C(C)C)CCC2c1ccccc1 (racemic) (as salt: maleate) [Example 55, (+/−)-2-isopropyl-8-methoxy-5-phenyl-2,3,4,5-tetrahydro-1H-benzo[c]azepine]"
5,96 to 98 °C,"CN1CCC(c2ccc(Cl)cc2)c2ccc(-c3ccc(N(C)C)nn3)cc2C1 (single isomer, unassigned) (as salt: maleate) [Example 45, {6-[5-(4-chlorophenyl)-2-methyl-2,3,4,5-tetrahydro-1H-benzo[c]azepine-8-yl]-pyridazin-3-yl}-dimethylamine]"
6,90 to 95 °C,"Cc1ccc(-c2ccc3c(c2)CN(C)CCC3c2cccc(F)c2)nn1 (single isomer, unassigned; (+)) (as salt: citrate) [Example 84 (+), (+)-5-(3-fluorophenyl)-2-methyl-8-(6-methylpyridazin-3-yl)-2,3,4,5-tetrahydro-1H-benzo[c]azepine]"
7,179 to 181 °C (dec.),"Cc1ccc(-c2ccc3c(c2)CN(C)CCC3c2ccc(Cl)cc2)nn1 (single isomer, unassigned; (+)) (as salt: hydrochloride) [Example 39, (+)-5-(4-chlorophenyl)-2-methyl-8-(6-methyl-pyridazin-3-yl)-2,3,4,5-tetrahydro-1H-benzo[c]azepine]"
8,187 to 189 °C (dec.),"CN1CCC(c2ccc(Cl)cc2)c2ccc(-c3cccnn3)cc2C1 (single isomer, unassigned; (+)) (as salt: hydrochloride) [Example 40, (+)-5-(4-chlorophenyl)-2-methyl-8-pyridazin-3-yl-2,3,4,5-tetrahydro-1H-benzo[c]azepine]"
9,196 to 198 °C,"Cc1noc(C)c1-c1ccc2c(c1)CN(C)CCC2c1ccc(Cl)cc1 (single isomer, unassigned; (+)) (as salt: maleate) [Example 43, (+)-5-(4-chlorophenyl)-8-(3,5-dimethylisoxazol-4-yl)-2-methyl-2,3,4,5-tetrahydro-1H-benzo[c]azepine]"
10,84 to 85 °C,"CN1CCC(c2ccc(Cl)cc2)c2ccc(-c3ncccn3)cc2C1 (single isomer, unassigned; (+)) (as salt: maleate) [Example 44, (+)-5-(4-chlorophenyl)-2-methyl-8-pyrimidin-2-yl-2,3,4,5-tetrahydro-1H-benzo[c]azepine]"
11,94 to 96 °C,"CN1CCC(c2ccc(Cl)cc2)c2ccc(N3CCOCC3)cc2C1 (single isomer, unassigned; (+)) (as salt: maleate) [Example 48, (+)-5-(4-chlorophenyl)-2-methyl-8-morpholin-4-yl-2,3,4,5-tetrahydro-1H-benzo[c]azepine]"
12,99 to 102 °C,"CN1CCC(c2ccc3ccccc3c2)c2ccc(-c3cccnn3)cc2C1 (single isomer, unassigned; (+)) (as salt: maleate) [Example 50, (+)-2-methyl-5-naphthalen-2-yl-8-pyridazin-3-yl-2,3,4,5-tetrahydro-1H-benzo[c]azepine]"
13,110 to 112 °C,"CN1CCC(c2ccc3ccccc3c2)c2ccc(N3CCOCC3)cc2C1 (single isomer, unassigned; (+)) (as salt: maleate) [Example 51, (+)-2-methyl-8-morpholin-4-yl-5-naphthalen-2-yl-2,3,4,5-tetrahydro-1H-benzo[c]azepine]"
14,92 to 96 °C,"COc1ccc2c(c1)CN(C)CCC2c1ccc2sccc2c1 (single isomer, unassigned; (+)) (as salt: maleate) [Example 52 (+), (+)-5-benzo[b]thiophen-5-yl-8-methoxy-2-methyl-2,3,4,5-tetrahydro-1H-benzo[c]azepine]"

# From patent publication US9403776B2, “Aryl- and heteroaryl-substituted tetrahydrobenzazepines and use thereof to block reuptake of norepinephrine, dopamine, and serotonin” (Albany Molecular Research, Inc., priority 2005, dated 2016)
